According to EP0183271B1, “Lysin derivative and proteinase inhibitor” (Okamoto, Shosuke, priority 1984, dated 1986):
Counter-ions that a name gives are not always drawn. Square brackets hold non-standard residues; d marks the D form. Peptide text beside a SMILES is read from it. * marks the point of attachment. dPhg = N[C@@H](C(=O)O)c1ccccc1; Tos = Cc1ccc(S(=O)(=O)*)cc1

How the values were obtained:
Plasmin [1] = molecular target: T1, Plasmin (Homo sapiens, UniProt P00747); assay: biochemical; settings: substrate S-2251
Protocol: (§1) (1) Evaluation of Antiplasmin Activity
(ii) Determination of prevention activity for S-2251 decomposition
An inhibitor sample is dissolved in a 0.05 M Tris-hydrochloric acid buffer solution (pH = 7.4) to make the total volume to 400 µl. To this solution, 50 pl of a 3 mM S-2251 solution is added and the mixture is incubated at a temperature of 37°C for 5 minutes in a constant temperature bath. Then, 50 pl of a 0.2 casein unit/ml human plasmin is added and the mixture is incubated at a temperature of 37°C for 4 minutes. Thereafter, the reaction is stopped by adding 50 µl of 50% acetic acid.
The absorbance of p-nitroaniline formed in the reaction mixture is determined at 405 nm. Thus, the concentration I50 of the inhibitor sample, at which the absorbance is one half (i.e., 1/2) of that obtained in the absence of the inhibitor, is determined.

Plasmin [2] = molecular target: T1, Plasmin; assay: Antiplasmin activity: prevention of fibrinogen decomposition; assay type: biochemical; settings: Table IV, present compounds, read-out: I50 Fibrinogen
Protocol: as §1
(iii) Determination of prevention activity for fibrinogen
An inhibitor sample is dissolved in a 0.18 M borate-physiological salt buffer solution (pH = 7.4) to make the total volume to 400 µl. To this solution, 500 pl of a 0.4% bovine fibrinogen solution and 100 pl of a 1 casein unit/ml human plasmin solution, all dissolved in the above-mentioned buffer are added at a temperature of 37°C in a constant temperature bath. After the mixture is allowed to stand at a temprature of 37°C for 10 minutes, 3800 µl of the above-mentioned buffer containing (3.2 mM of tranexamic acid and 200 µl of a 50 unit/ml bovine thrombin solution are added to terminate the reaction. The mixture is incubated at a temperature of 37°C for 15 minutes to precipitate the fibrin. The fibrin mass thus precipitated is adhered to or wound around a glass rod and is then washed with water. The amount of the remaining fibrinogen is determined according to a tyrosine coloring method using a phenol reagent (see J. Biol. Chem., 73, 627 (1927). From the amount of the remaining fibrinogen thus determined, the amount of decomposed fibrinogen is calculated. Thus, the concentration 150 of the inhibitor sample, at which the amount of decomposed fibrinogen is one half (i.e., 1/2) of that obtained in the absence of the inhibitor sample, is determined.

Plasmin [3] = molecular target: T1, Plasmin; assay: biochemical
Protocol: as §1
(i) Determination of prevention activity for fibrin decomposition
0.18 M borate-physiological salt buffer solution (pH = 7.4) to make the total volme to 600 pl. To this buffer solution, 200 µl of a 0.2% bovin fibrinogen, 100 µl of a 0.3 cassein unit/ml human […] solution, and 100 µl of a 50 unit/ml bovine thrombin solution, all dissolved in the above-mentioned buffer, are added at a temperature of 37°C in a constant temperature bath. Then, the dissolution time of the fibrin mass formed above is determined.

bovine thrombin [4] = molecular target: T2, bovine thrombin (Bos taurus, UniProt P00735); assay: Antithrombin activity: prevention of S-2238 decomposition; assay type: biochemical; settings: Table III, known compounds of Table II; substrate S-2238; *1: 0% Inhibition at the given concentration; read-out: I50 Thrombin S-2238
Protocol: (§2) (2) Evaluation of Antithrombin Activity
(ii) Determination of prevention activity for S-2238 decomposition
An inhibitor sample is dissolved in a 0.05 M Tris-hydrochloric acid buffer solution (pH = 8.3) to make a total volume to 400 µl. To this solution, 50 µl of a […] S-2238 solution is added and the mixture is incubated at a temperature of 37°C for 5 minutes in a constant temperature bath. Then, 50 µl of a 0.2 unit/ml bovine thrombin solution is added thereto and the absorbance, at 405 nm, of the p-nitroaniline formed per minute is determined at a temperature of 37°C by using the so-called initial velocity method. Thus, the concentration 150 of the inhibitor sample at which the absorbance is one half (i.e., 1/2) of that obtained in the absence of the inhibitor, is determined.

human plasma kallikrein = human plasma kallikrein (Homo sapiens, UniProt P03952); assay: Anti-plasma kallikrein activity: prevention of S-2302 decomposition; assay type: biochemical; settings: Table III, known compounds of Table II; substrate S-2302; *1: 0% Inhibition at the given concentration; read-out: I50 Plasma Kallikrein S-2302
Protocol: (4) Evaluation of Anti-Plasma Kallikrein Activity
Determination of prevention activity for S―2302 decomposition
An inhibitor sample is dissolved in a 0.05 M Tris-hydrochloric acid buffer solution (pH = 7.8) to make the total volume to 400 pl. To this solution, 50 pl of a 2 mM S-2302 solution is added and the mixture is incubated at a temperature of 37°C for 5 minutes in a constant temperature bath. Then, 50 µl of a 0.12 unit/ ml human plasma kallikrein is added and the mixture is incubated at a temperature of 37°C for 5 minutes. Thereafter, 50 pl of 50% acetic acid is added to terminate the reaction. The absorbance of the p-nitroaniline formed in the reaction mixture is measured at 405 nm. Thus, the concentration 150 of the inhibitor sample, at which the absorbance is one half (i.e., 1/2) of that obtained in the absence of the inhibitor sample, is determined.

bovine thrombin [5] = molecular target: T2, bovine thrombin; assay: Antithrombin activity: inhibition of fibrin formation from fibrinogen (coagulation time); assay type: biochemical; settings: Table III, known compounds of Table II; coagulation time extended twice; *1: 0% Inhibition at the given concentration; read-out: I50 Thrombin Fibrinogen
Protocol: as §2
(i) Determination of inhibition activity against fibrin formation
An inhibitor sample is dissolved in a 0.18 M borate-physiological salt buffer solution (pH = 7.4) to make the total volume to 500 µl. To this solution, 400 µl of a 0.2% bovine fibrinogen solution and 100 µl of a 4 unit/ ml bovine thrombin solution are added at a temperature of 37°C in a constant temperature bath. Thus, a coagulation time is determined. The inhibitor concentraion I50, at which the coagulation time obtained in the absence of the inhibitor is extended twice, is determined.

human urokinase = human urokinase (Homo sapiens, UniProt P00749); assay: Antiurokinase activity: prevention of S-2444 decomposition; assay type: biochemical; settings: Table III, known compounds of Table II; substrate S-2444; *1: 0% Inhibition at the given concentration; read-out: I50 Urokinase S-2444
Protocol: (5) Evaluation of Antiurokinase Activity
Determination of prevention activity for S-2444 decomposition
An inhibitor sample is dissolved in a 0.05 M Tris-hydrochloric acid buffer solution (pH = 8.8) to make the total volume to 400 pl. To this solution, 50 pl of a 1 mM S―2444 solution is added and the mixture is incubated at a temperature of 37°C for 5 minutes in a constant temperature bath. Then, 50 µl of a 500 unit/ ml human urokinase is added and the mixture is incubated at a temperature of 37°C for 5 minutes. Thereafter, 50 pl of 50% acetic acid is added to terminate the reaction. The absorbance of the p-nitroaniline formed in the reaction mixture is measured at 405 nm. Thus, the concentration 150 of the inhibitor sample, at which the absorbance is one half (i.e., 1/2) of that obtained in the absence of the inhibitor, is determined.

bovine trypsin = molecular target: T3, bovine trypsin (Bos taurus, UniProt P00760); assay: Antitrypsin activity: inhibition of S-2238 decomposition; assay type: biochemical; settings: Table III, known compounds of Table II; substrate S-2238; *1: 0% Inhibition at the given concentration; read-out: I50 Trypsin S-2238
T3 sequence (P00760 24-246): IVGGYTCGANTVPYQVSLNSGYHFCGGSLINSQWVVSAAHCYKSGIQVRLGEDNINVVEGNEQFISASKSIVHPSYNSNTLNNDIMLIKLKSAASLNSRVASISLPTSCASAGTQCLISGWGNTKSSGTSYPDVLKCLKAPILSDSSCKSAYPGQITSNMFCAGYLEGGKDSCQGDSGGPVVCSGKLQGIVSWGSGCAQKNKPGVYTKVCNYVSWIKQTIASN
Protocol: (3) Evaluation of Antitrypsin Activity
Determination of inhibition activity against S-2238 decomposition
An inhibitor sample is dissolved in a 0.05 M Tris-imidazole buffer solution (pH = 8.1) and 125 µl of a 1 mM S―2238 solution is added to make the total volume to 1.20 ml. The mixture is incubated at a temperature of 37°C for 5 minutes in a constant temperature bath. To this mixture, 0.05 ml of bovine trypsin is added and the absorbance, at 405 nm, of the p-nitroaniline formed per minute is determined at a temperature of 37°C by using the so-called initial velocity method. Thus, the concentration 15° of the inhibitor sample, at which the absorbance is one half (i.e., 1/2) of that obtained in the absence of the inhibitor, is determined.

[6] = Table III, known compounds of Table II, *1: 0% Inhibition at the given concentration, read-out: I50 Plasmin S-2251
[7] = Table IV, present compounds, plasmin, read-out: I50 S-2251
[8] = Table IV, present compounds, plasmin, fibrin decomposition, read-out: I50 Fibrin
[9] = Table III, known compounds of Table II, fibrin dissolution time extended twice, *1: 0% Inhibition, *2: 19% Inhibition at the concentration, read-out: I50 Plasmin Fibrin

Sequence of human plasma kallikrein (P03952 391-638 limits assumed): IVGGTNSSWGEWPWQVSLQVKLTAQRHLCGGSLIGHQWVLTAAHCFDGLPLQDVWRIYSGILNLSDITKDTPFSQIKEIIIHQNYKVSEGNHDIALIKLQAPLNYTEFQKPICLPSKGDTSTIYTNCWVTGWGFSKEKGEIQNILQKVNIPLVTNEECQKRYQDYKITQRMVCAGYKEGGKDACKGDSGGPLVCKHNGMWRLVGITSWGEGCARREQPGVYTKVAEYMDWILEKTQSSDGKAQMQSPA
Sequence of human plasma kallikrein (P03952 20-390 partner limits assumed): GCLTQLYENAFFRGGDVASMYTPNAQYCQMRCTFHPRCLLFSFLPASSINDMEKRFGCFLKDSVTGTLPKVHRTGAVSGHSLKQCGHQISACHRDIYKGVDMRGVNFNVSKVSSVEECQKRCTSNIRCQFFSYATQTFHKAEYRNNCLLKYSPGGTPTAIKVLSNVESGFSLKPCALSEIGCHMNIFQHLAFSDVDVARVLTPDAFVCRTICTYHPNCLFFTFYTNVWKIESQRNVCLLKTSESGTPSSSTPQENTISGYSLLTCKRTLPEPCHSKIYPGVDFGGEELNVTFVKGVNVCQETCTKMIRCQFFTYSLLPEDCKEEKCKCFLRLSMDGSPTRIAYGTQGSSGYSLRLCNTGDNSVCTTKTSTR
T1 sequence (P00747 581-810 limits assumed): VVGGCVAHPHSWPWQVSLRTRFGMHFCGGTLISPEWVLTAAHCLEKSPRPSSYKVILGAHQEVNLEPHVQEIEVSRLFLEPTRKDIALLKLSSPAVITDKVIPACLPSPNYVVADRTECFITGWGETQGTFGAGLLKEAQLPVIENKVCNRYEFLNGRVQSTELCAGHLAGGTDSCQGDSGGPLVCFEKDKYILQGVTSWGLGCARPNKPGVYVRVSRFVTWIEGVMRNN
T1 sequence (P00747 97-580 partner limits assumed): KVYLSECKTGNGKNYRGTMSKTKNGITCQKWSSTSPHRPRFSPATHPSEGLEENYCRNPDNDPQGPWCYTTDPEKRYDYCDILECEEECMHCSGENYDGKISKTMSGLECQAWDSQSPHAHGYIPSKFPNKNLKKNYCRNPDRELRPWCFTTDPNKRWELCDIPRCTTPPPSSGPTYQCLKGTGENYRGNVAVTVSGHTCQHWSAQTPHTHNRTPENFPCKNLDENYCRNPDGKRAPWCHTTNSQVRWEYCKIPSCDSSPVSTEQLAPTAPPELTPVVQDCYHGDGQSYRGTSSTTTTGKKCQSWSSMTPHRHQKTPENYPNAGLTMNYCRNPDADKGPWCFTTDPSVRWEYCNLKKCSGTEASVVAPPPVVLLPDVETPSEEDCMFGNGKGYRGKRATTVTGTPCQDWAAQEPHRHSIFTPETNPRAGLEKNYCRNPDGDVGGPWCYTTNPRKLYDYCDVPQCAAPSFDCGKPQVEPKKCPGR

IC50 (Plasmin [1]; [7]) [µM] | IC50 (Plasmin [3]; [8]) [µM] | Structure (SMILES) | also measured
700 | 780 | Cc1ccc(S(=O)(=O)N[C@@H](CCCCN)C(=O)Nc2ccc([N+](=O)[O-])cc2)cc1 [Compound No. 3, N^2-(p-toluenesulfonyl)-L-lysine p-nitroanilide hydrochloride] | IC50 (Plasmin [1]; [6]): 50000 µM; IC50 (Plasmin [2]): 900 µM
350 | 300 | NCCCCCC(=O)N[C@@H](CCCCN)C(=O)O [Compound No. 7] | IC50 (bovine thrombin [4]): > 1000 µM; IC50 (human plasma kallikrein): > 1000 µM; IC50 (Plasmin [1]; [6]): > 1000 µM; IC50 (bovine thrombin [5]): > 1000 µM; IC50 (human urokinase): > 1000 µM; IC50 (Plasmin [3]; [9]): > 1000 µM; IC50 (bovine trypsin): > 200 µM
390 | 75 | CCOC(=O)c1cc(NC(=O)[C@H](CCCCN)NS(=O)(=O)c2cccc3ccccc23)cc(C(=O)OCC)c1 [Compound No. 11] | IC50 (Plasmin [2]): 80 µM
600 | 350 | Cc1ccc(S(=O)(=O)N[C@@H](CCCCN)C(=O)Nc2cccc(Cl)c2)cc1 [compound 18] | 
300 | 150 | Cc1ccc(S(=O)(=O)N[C@@H](CCCCN)C(=O)N2CCC(Cc3ccccc3)CC2)cc1 [compound 21] | 
600 | 430 | Cc1ccc(S(=O)(=O)N[C@@H](CCCCN)C(=O)Nc2ccc(C(F)(F)F)cc2)cc1 [compound 32] | 
370 | 190 | Cc1ccc(S(=O)(=O)N[C@@H](CCCCN)C(=O)Nc2ccc(Cl)c(Cl)c2)cc1 [compound 35] | 

Second part, the compound before the results:

Structure (SMILES) | IC50 (Plasmin [1]; [7]) [µM] | IC50 (Plasmin [3]; [8]) [µM] | also measured
NCCCC[C@H](NC(=O)c1ccccc1)C(N)=O [Compound No. 8] | 250 | 140 | IC50 (bovine thrombin [4]): > 1000 µM; IC50 (human plasma kallikrein): > 1000 µM; IC50 (Plasmin [1]; [6]): > 1000 µM; IC50 (bovine thrombin [5]): > 1000 µM; IC50 (human urokinase): > 1000 µM; IC50 (Plasmin [3]; [9]): > 1000 µM; IC50 (bovine trypsin): > 300 µM
NCCCC[C@H](NS(=O)(=O)c1cccc2ccccc12)C(=O)Nc1ccc([N+](=O)[O-])cc1 [Compound No. 10] | 1700 | 310 | 
NCCCC[C@H](NS(=O)(=O)c1ccccc1)C(N)=O [compound 4] |  |  | IC50 (bovine thrombin [4]): > 1000 µM; IC50 (human plasma kallikrein): > 1000 µM; IC50 (Plasmin [1]; [6]): > 1000 µM; IC50 (bovine thrombin [5]): > 1000 µM; IC50 (human urokinase): > 1000 µM; IC50 (Plasmin [3]; [9]): > 1000 µM; IC50 (bovine trypsin): > 150 µM
Cc1ccc(S(=O)(=O)N[C@@H](CCCCN)C(=O)O)cc1 [compound 5] |  |  | IC50 (Plasmin [1]; [6]): 1400 µM; IC50 (Plasmin [3]; [9]): 1000 µM
Cc1ccc(S(=O)(=O)N[C@H](CCCCN)C(=O)Nc2ccc(C(=O)c3ccccc3)cc2)cc1 [compound 20] | 2000 | 1000 | 
CCOC(=O)[C@H](NC(=O)[C@H](CCCCN)NS(=O)(=O)c1ccc(C)cc1)c1ccccc1 [compound 22] (Tos-Lys-[dPhg]-OEt) | 650 | 600 | 
Cc1ccc(S(=O)(=O)N[C@@H](CCCCN)C(=O)Nc2cccc(C#N)c2)cc1 [compound 29] | 480 | 340 | 
Cc1ccc(S(=O)(=O)N[C@@H](CCCCN)C(=O)Nc2ccc(Oc3ccccc3)cc2)cc1 [compound 31] | 780 | 150 | 
CCOC(=O)c1ccc(NC(=O)[C@H](CCCCN)NS(=O)(=O)c2ccc(C)cc2)cc1 [compound 33] | 650 | 540 | 
Cc1ccc(S(=O)(=O)N[C@@H](CCCCN)C(=O)Nc2ccc(C(=O)c3ccccc3)cc2)cc1 [compound 36] | 140 |  | IC50 (Plasmin [2]): 200 µM
CC1CCCN(C(=O)[C@H](CCCCN)NS(=O)(=O)c2cccc3c(N(C)C)cccc23)C1 (some centres unmarked) [compound 37] | 2000 | 730 | 
CCOC(=O)c1c(C)cc(NC(=O)[C@H](CCCCN)NS(=O)(=O)c2ccc(C)cc2)cc1C [compound 40] | 590 | 440 | 
Cc1ccc(S(=O)(=O)N[C@@H](CCCCN)C(=O)Nc2cc(C)nc3ccccc23)cc1 [compound 42] | 230 |  | 
CN(C)c1cccc2c(S(=O)(=O)N[C@@H](CCCCN)C(=O)N3CCC(Cc4ccccc4)CC3)cccc12 [compound 48] | 130 |  | 
